In data set [1] the target is T1, dihydrooroate dehydrogenase (Homo sapiens, UniProt Q02127).
T1 construct: ultracentrifugation at 4° C. and 120,000×g for 60 minutes afforded a mitochondrial/microsomal fraction; endogenous in cells; host or cells: U-937 (human histiocytic lymphoma cell line), mitochondrial/microsomal fraction
Kind of data set: dihydroorotate dehydrogenase inhibition, U-937 mitochondrial/microsomal fraction, DCIP absorbance at 620 nm. In kind it is biochemical. To be noted: DHODH of human U-937 cell mitochondrial/microsomal fraction; 37° C., 120 minutes. How it is done:
Method of Testing dihydrooroate dehydrogenase Inhibition
Human U-937 cell (human histiocytic lymphoma cell line) was sonicated in a homogenizing buffer (20 mM Tris-HC1, pH 7.4, containing 2 mM EDTA and protease inhibitor cocktail), and this was centrifuged at 4° C. and 1,200×g for 15 minutes to remove cell debris. Further, ultracentrifugation at 4° C. and 120,000×g for 60 minutes afforded a mitochondrial/microsomal fraction. The resulting fraction was quantitated for a protein, and prepared to 10 mg/ml, which was freezing-stored in a −40° C. in a refrigerator until measurement. To 150 μl of the reaction solution (50 mM Tris-HC1, pH 7.4, containing 0.1% Triton X-100, 1 mM KCN, 100 μM coenzyme Q10, 200 μM DCIP), were added 10 μl of a dilution series of the compound and 0.2 mg of a mitochondrial/microsomal fraction, followed by pre-incubation at 37° C. for 30 minutes. Then, 20 μl of a 5 mM DHO solution (final concentration […]), which is a substrate, was added, this was incubated at 37° C. for 120 minutes, and an absorbance at a measurement wavelength of 620 nm was measured. A rate of suppression of a compound at each concentration relative to a change in an absorbance due to the enzyme reaction was obtained, and a concentration indicating 50% inhibition (IC50 value) was calculated to assess the inhibition activity of the compound.

The subject of data set [2] is anti-OVA IgE antibody. Kind of data set: suppression of IgE antibody production to anti-ovalbumin (OVA) in immunized mice, PCA titer. The format is in vivo. To be noted: anti-OVA IgE antibody value (PCA titer, Log2 of maximum serum dilution rate) in BALB/c mice. How it is done:
Effect of Suppression of IgE Antibody Production to Anti-Ovalbumin (OVA)
BALB/c mice (female, 8 to 10 week old) purchased from Japan Charles River (Kanagawa) and Wistar rats (female, 8 to 10 week old) purchased from Japan SLC (Sizuoka) were used.
BALB/c mice were immunized by intraperitoneally injecting 0.2 ml of a solution obtained by suspending 2 μg of ovalbumin (OVA) and an aluminum hydroxide gel (1 mg) in a brine. After ten days, blood was taken from a heart, the serum was separated, and an IgE antibody value was measured.
[…] Administration was performed from immunization date to the day before blood collection for consecutive 10 days.
4) Measurement of Anti-OVA IgE Antibody Value (PCA Titer)
The resulting mouse serum was prepared into a 2-fold dilution series with a brine, and each 50 μl of this was subcutaneously injected into a back of a pre-shaved Wistar rat. After 24 hours, 0.5 ml of a brine containing 1 mg of OVA and 5 mg of an Evans Blue dye was intravenously injected to induce a passive skin anaphylactic reaction (PCA).

In data set [3] the test system is Human lymphocyte. The data set is described as follows: suppression of IgE antibody production in human lymphocyte stimulated with anti-human CD40 antibody and IL-4. In kind it is cell-based. Conditions: 216 h; IgE antibody production by human lymphocyte, anti-human CD40 antibody + IL-4, cultured for 9 days, ELISA. The procedure: Effect of Suppressing Antibody Production Using Human Lymphocyte
1) Human Peripheral Blood
Human peripheral blood was collected with a plastic syringe containing heparin (final concentration 1.5%) from a vein of an adult healthy person, and subjected to collection of lymphocyte immediately after blood collection.
To the RPMI medium (Sigma) were added 10% of fetal bovine serum, (HyClone Lab.) which had been immobilized at 56° C. for 30 minutes, penicillin (100 units/ml) and streptomycin (100 μg/ml) (Invitrogen), which was used.
The present compound was dissolved in dimethyl sulfoxide (Nakalai Tesque) to 2 mg/ml and, thereafter, the solution was diluted with a medium to a final concentration of 0.01 pg/ml to 10 μg/ml.
Human peripheral blood was mixed with an equal amount of PBS-10 mM EDTA, 10 ml of this was overlaid on a tube containing 3 ml of Ficoll-Paque Plus (Pharmacia Biotech), followed by centrifugation at room temperature and 300×g for 30 minutes to obtain a lymphocyte layer. The collected cell suspension was centrifugation-washed with a sterilized Hanks's balanced salt solution (Invitrogen), passed through a nylon mesh, and centrifugation-washed with a medium, which was used in an experiment as human lymphocyte.
5) Inducement of IgE Antibody Production Due to B cell Stimulation
Human lymphocyte was seeded on a 96-well culturing plate (Sumitomo Bakelite) to 2×10^5 cells per well, and the compound, an anti-human CD40 antibody (Pharmingen, 2 μg/ml), and human recombinant interleukin-4 (IL-4) (PEPROTECH, 0.1 μg/ml) were added, followed by culturing at 37° C. under the presence of 5% CO2 (0.2 ml/well). After cultured for 9 days, an amount of an antibody produced in the supernatant was quantitated by a specific ELISA method.
6) Quantitation of IgE Antibody
For quantitating IgE, a commercially available kit, MESACUP IgE Test (Medical & Biological Laboratories Co., Ltd.) was used. An experimental method was according to the manual, an experiment was performed duplicately, and an average was obtained.
On the technique in general: In an ELISA, binding on a coated surface is turned into a signal by an enzyme label.

The mark [4] stands for this setting: dose 10 mg/kg orally for consecutive 10 days.
[5] abbreviates: dose 40 mg/kg orally for consecutive 10 days.

T1 sequence (Q02127 whole entry): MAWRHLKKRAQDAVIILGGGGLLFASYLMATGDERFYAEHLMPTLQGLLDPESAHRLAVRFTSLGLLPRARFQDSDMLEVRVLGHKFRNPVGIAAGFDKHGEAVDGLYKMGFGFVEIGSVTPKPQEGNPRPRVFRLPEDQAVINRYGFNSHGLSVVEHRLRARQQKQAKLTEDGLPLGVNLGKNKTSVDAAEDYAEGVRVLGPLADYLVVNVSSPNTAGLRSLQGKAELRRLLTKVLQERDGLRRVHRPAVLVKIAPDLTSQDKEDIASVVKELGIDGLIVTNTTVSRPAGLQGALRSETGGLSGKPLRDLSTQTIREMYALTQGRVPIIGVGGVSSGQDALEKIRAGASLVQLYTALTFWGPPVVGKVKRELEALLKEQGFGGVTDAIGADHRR

Regarding `C/C(=C\c1ccc(-c2ccc3[nH]ccc3c2)cc1)C(=O)O` [Compound 1], the melting point (commonly the temperature, or range, at which the solid turns liquid) lay within 195 to 198 °C.

Regarding `C/C(=C\c1ccc(-c2ccc3[nH]ccc3c2)cc1)C(=O)NC1CCCC1` [Compound 4], the melting point lay in the range of 154 to 157 °C.

With `C/C(=C\c1cc(F)c(-c2ccc(NC(C)C)cc2)cc1F)C(=O)NCC(=O)O` [Compound 21], the melting point lay within 156 to 158 °C.

In turn, `COc1cc(-c2ccc(NC(C)C)cc2F)c(OC)cc1/C=C(\C)C(=O)O` [Compound 22] had a melting point of 213 to 216 °C.

Take `C/C(=C\c1cc(C)c(-c2ccc(NC(C)C)cc2F)cc1C)C(=O)NC(C)C` [Compound 122]: the IC50 (commonly the concentration at which inhibition is half-maximal) in data set [1] was 10.5 nM; in data set [3], 0.5 ng/mL. In data set [2] (setting [4]), this molecule displayed a PCA of 4.7.

Regarding `Cc1cc(-c2ccc(NC(C)C)cc2F)c(C)cc1/C=C(/F)C(=O)NC(C)C` [Compound 201], the IC50 is 5.17 nM in data set [1] and 0.6 ng/mL in data set [3]. Further, the PCA in data set [2] (setting [4]) amounted to 5.3.

Regarding `C/C(=C\C(=O)NC(C)C)c1cc(C)c(-c2ccc3[nH]ccc3c2)cc1C` [Compound 252], the IC50 was 13.6 nM in data set [1] and 75 ng/mL in data set [3]. In addition, the PCA in data set [2] (setting [5]) is 0<.

Turning to `CCS(=O)(=O)NC(=O)/C(C)=C/c1cc(C)c(-c2ccc(NCc3ccco3)cc2F)cc1C` [Compound 347], the IC50 in data set [1] was 6.16 nM; in data set [3] it was 60 ng/mL. The molecule further returned a PCA in data set [2] (setting [5]) of 2.0.

Turning to `Cc1cc(-c2ccc(NC3CCCC3)cc2)c(C)cc1/C=C(\F)C(=O)NC(C)C` [Compound 397], the IC50 in data set [1] was 6.84 nM; in data set [3], 0.3 ng/mL. In addition, in data set [2] (dose 20 mg/kg orally for consecutive 10 days), the PCA is on record as 0<.

For the origin of these results see patent US20070299114A1, “Biaryl Derivatives” (Shionogi & Co., Ltd., priority 2004, published 2007).
